Source: US8309068B2, “Isolated polypeptides and methods of improving muscle strength” (Myostin Therapeutics Pty Ltd., priority 2006, dated 2012)
Entries after “also recorded” stand apart in the source; their conditions may differ. Where no end group is shown, it is not given here.

Legend:
myostatin [1] = assay: C2C12 myoblast proliferation competition assay: wild type myostatin competed with antagonists; format: cell-based; conditions: antagonist 1, 5 and 10 μg/ml; myostatin 2.25 μg/ml
Procedure: (§1) Bovine C2C12 myoblasts were grown in Dulbecco's modified eagle medium according to the standard techniques (Thomas et al, 2000). The myoblast proliferation assay was carried out in uncoated 96-well microtitre plates. C2C12 cultures were seeded at 1000 cells/well. Following a 16-hour attachment period, test media containing either recombinant wild type myostatin or different myostatin antagonists were added and cells were incubated for a further 48 or 72 hour period. For competition assay, wild type myostatin was competed with different concentrations of myostatin antagonists prior to the addition into the media. After the incubation period, proliferation was assessed using methylene blue photometric endpoint assay as previously described (Thomas et al, 2000).

primary ovine myoblasts = assay: Ovine myoblast proliferation assay; format: cell-based; conditions: 1, 5 or 10 μg/ml; 48 hours
Procedure: (§2) Human skeletal muscle myoblasts (Cambrex, USA) or primary ovine myoblasts were grown in Dulbecco's Modified Eagle Medium containing 20% FBS, 10% Horse serum and 0.5% chicken embryo extract according to the standard techniques. The myoblast proliferation assay was carried out in uncoated 96-well microtitre plates. Cell cultures were seeded at 2000 cells/well. Following a 24-hour attachment period, test media supplemented with 5% FCS containing either buffer as a control or different myostatin antagonists (300, 310 or 320) were added at 1, 5 and 10 μg/ml and cells were incubated for a further 144 hour period (for human cells) or 48 hours (for ovine cells). After the incubation period, proliferation was assessed using methylene blue photometric endpoint assay as previously described (Thomas et al, 2000).

[2] = test system: Human skeletal muscle myoblasts; assay: Human myoblast proliferation assay; format: cell-based; conditions: 1, 5 or 10 μg/ml; 144 hours
Procedure: as §2

satellite cells = assay: Single muscle fibre satellite cell activation assay (PCNA labeling); format: cell-based, mice; conditions: single fibres from old (2 year old) mice; 5 μg/ml; 24 or 48 hours
Procedure: Single fibres were isolated as previously described Rosenblatt et al., (1995). Briefly, 1 and 24 month old wild-type mice were euthanized by CO2 gas followed by cervical dislocation. TA were dissected out and digested in 0.2% (w/v) type 1A collagenase (>260 CDU/mg, Sigma) in Dulbecco's modified Eagle medium (DMEM) (Invitrogen) for 60 minutes at 37° C. Muscles were transferred to DMEM +10% horse serum (HS) +0.5% chicken embryo extract (CEE) and fibres were separated by gentle trituration. Isolated fibres were transferred to 4 well chamber slides (Becton Dickinson) coated with 10% matrigel (Becton Dickinson) and fixed with 100% ice cold methanol for 10 minutes after culturing up to 72 hours at 37° C. in 5% CO2.
Proliferating Cell Nuclear Antigen (PCNA) is expressed in cells that are actively undergoing cell cycle but not in quiescent cells. […] However, upon activation, satellite cells are activated to express PCNA and regenerate the muscle by replenishing the muscle fibres. Thus PCNA is a very reliable antigen to marker for the activated satellite cells.
In order to determine the effect of myostatin antagonists on satellite cell activation, single muscle fibres from TA muscle of young (1 month) or old (24 month) wild type mice were cultured in presence of 5 μg/ml of myostatin antagonist 320, 310 or 300, in culture media for 24, 48 and 72 hours and fixed with methanol and washed in PBS. The fixed fibres were permeabilised in 0.5% TritonX-100 in PBS for 10 minutes, blocked in 10% normal goat serum and 0.35% carrageenan lambda in PBS for 30 minutes at room temperature then incubated with a 1:100 dilution of anti-PCNA antibody in blocker overnight. Primary antibody was detected using goat anti-mouse-alexa fluor 546 and fibres were counterstained with DAPI. PCNA positive activated satellite cells were counted under microscope and expressed as a percent of total myonuclei.

myostatin [3] = assay: Myoblast chemotaxis assay, recovery of myostatin chemo-inhibition by antagonists; format: cell-based
Procedure: Primary myoblasts were cultured from the hind limb muscle of young (4 to 6 week old) or old (24 month old) mice, according to the published protocols (Allen et al., 1997; Partridge, 1997). Briefly, muscles were minced, and digested in 0.2% collagenase type 1A for 90 min. Cultures were enriched for myoblasts by pre-plating on uncoated plates for 3 hours. Myoblast cultures were maintained in growth media (GM) supplemented with 20% fetal calf serum (FCS), 10% HS and 1% CEE on 10% Matrigel coated plates, at 37° C./5% CO2. The extent of culture purity was assessed by flow cytometry analysis of MyoD expression after 48 hours in culture. Cells were harvested using trypsin, suspended at a concentration of 10^6 cells/200 μl and fixed overnight in 5 ml 70% ethanol at −20° C. Staining was performed for 30 min at room temperature using rabbit polyclonal anti-MyoD, 1:200 (Santa Cruz), followed by Alexa fluor 488 anti-rabbit conjugate, 1:500 (Molecular Probes). Analysis was carried out in duplicate with 10^4 cell events collected in each assay. Debris was excluded by gating on forward and side scatter profiles. Cells were analyzed by FACScan (Becton Dickinson). Macrophages were isolated by a peritoneal lavage technique and/or derived from bone marrow Zymosan-activated mouse serum (ZAMS) was prepared according to the published protocol (Colditz and Movat, 1984).
For the chemotaxis assay of myoblasts, a first assay was carried out on myoblasts from 2 year old mice as follows. DMEM containing 2% horse serum (HS), 5% chicken embryo extract (CEE) plus dialysis buffer was used as positive control. […] Plain DMEM was used as negative control. On a 24-well plate, the bottom wells were filled with test or control media. Seventy-five thousand cells were added to the top wells containing polyethylene terephthalate (PET) 0.8 μm membranes coated with 1% Matrigel. The plate was incubated for 7 h at 37° C., 5% CO2. […] The membrane was then fixed, stained in Gill's hematoxylin and wet mounted on slides. Migrated cells were counted on four representative fields per membrane and the average number plotted. The results are shown in FIG. 6 (myoblast migration from old mice) and FIG. 7 (myoblast migration from young mice).

C2C12 myoblasts = assay: C2C12 myoblast proliferation assay (methylene blue endpoint); format: cell-based, murine; conditions: for proliferation capacity of myoblasts compared to control: 1 μg/ml or 5 μg/ml over 48 or 72 hours; for concentration at which the highest myoblast proliferation rate was observed: 48 hour time point
Procedure: A polypeptide of the invention, or a fragment, variant or derivative thereof has the biological function of antagonising myostatin activity. To determine whether a polypeptide of the invention, or a fragment, variant or derivative thereof, is able to antagonise myostatin activity, such activity can be tested by growing myoblasts in the presence or absence (control) of a candidate polypeptide of the invention. […]
as §1, with “The” for “Bovine C2C12 myoblasts were grown in Dulbecco's modified eagle medium according to the standard techniques (Thomas et al, 2000). The”

[4] = test system: C57B mice injected with Dexamethasone; assay: In vivo cachexia trial (Dexamethasone-induced)
Procedure: A study of chronic cachexia was designed whereby C57B mice, 4 weeks of age, were injected with the glucocorticoid drug Dexamethasone daily at a concentration of 1 mg/kg body weight. Three treatment groups were designed: 5 mice receiving daily injections of saline, 5 mice receiving daily injections of Dexamethasone and 5 mice receiving daily injections of Dexamethasone plus 300 antagonist at a concentration of 6μg/g body weight. Body weight of the mice was recorded daily and monitored closely for signs of cachexia. Food and water consumption was recorded to ensure that loss in body weight was not due to a loss of appetite or thirst. Body weights, fat-pad weights, and MyoD and Pax7 expression were assessed.

[5] = myoblasts from old (2 year old) mice, antagonist added at 5 μg/ml, myostatin 2.5 μg/ml
[6] = Dexamethasone, right gastrocnemius, p<0.05

myostatin antagonist 320: recombinant peptide, amino acids 267-320 of bovine myostatin, with N terminal and C terminal tag (SEQ ID NO: 4) (DFGLDCDEHSTESRCCRYPLTVDFEAFGWDWIIAPKRYKANYCSGECEFVFLQK; cysteine pairing not given here; also: N- and C-terminal tags; listed as Homo sapiens)
rescue of the proliferation-inhibiting effects of myostatin on myoblasts (myostatin [1]): rescued to levels similar to those observed in the positive control | proliferation capacity of ovine myoblasts compared to control (primary ovine myoblasts): significantly enhanced | proliferation capacity of human myoblasts compared to control [2]: significantly enhanced | percentage of activated satellite cells (satellite cells): Significant increases | rescue of chemo-inhibiting effects of myostatin on myoblast migration (myostatin [3]; [5]): rescued to levels similar to those observed in the control | proliferation capacity of myoblasts compared to control (C2C12 myoblasts): significantly enhanced | concentration at which the highest myoblast proliferation rate was observed (C2C12 myoblasts): 5 µg/mL

myostatin antagonist 280: recombinant peptide, amino acids 267-280 of bovine myostatin, with tags; contains only one cysteine residue; inactive comparison (DFGLDCDEHSTESR; also: with tags; UniProt O18836 267-280, looked up, fragment)
proliferation capacity of myoblasts compared to control (C2C12 myoblasts): did not show activity above the control | biological (myostatin antagonist) activity of the peptide (C2C12 myoblasts; listed as 280): appears to be inactive; also recorded: not biologically active

C[C@@H]1C[C@H]2[C@@H]3CCC4=CC(=O)C=C[C@]4(C)[C@@]3(F)[C@@H](O)C[C@]2(C)[C@@]1(O)C(=O)CO [Dexamethasone, reference compound]
average body weight compared with saline injected controls ([4]; Dexamethasone 1 mg/kg daily, 22 days): reduction in average body weight | increase in left retroperitoneal fat-pad weight compared to saline ([4]; Dexamethasone only): 62.9% | increase in right retroperitoneal fat-pad weight compared to saline ([4]; Dexamethasone only): 60.4% | left and right retroperitoneal and inguinal fat-pad weights compared to saline ([4]; Dexamethasone only, p<0.05): statistically significant increases | MyoD expression (Western blot) [4, 6]: significant down-regulation | Pax7 expression (Western blot) [4, 6]: significant down-regulation

myostatin antagonist 310: recombinant peptide, amino acids 267-310 of bovine myostatin, with N terminal and C terminal tag (SEQ ID NO: 5) (DFGLDCDEHSTESRCCRYPLTVDFEAFGWDWIIAPKRYKANYCS; cysteine pairing not given here; also: N- and C-terminal tags; listed as Homo sapiens)
rescue of the proliferation-inhibiting effects of myostatin on myoblasts (myostatin [1]): rescued to levels similar to those observed in the positive control | proliferation capacity of ovine myoblasts compared to control (primary ovine myoblasts): significantly enhanced | proliferation capacity of human myoblasts compared to control [2]: significantly enhanced | percentage of activated satellite cells (satellite cells): Significant increases | rescue of chemo-inhibiting effects of myostatin on myoblast migration (myostatin [3]; [5]): rescued to levels similar to those observed in the control | rescue of chemo-inhibiting effects of myostatin on myoblast migration (myostatin [3]; myoblasts from young (1 month old) mice): rescued the migration of myostatin cells to control levels | proliferation capacity of myoblasts compared to control (C2C12 myoblasts): significantly enhanced | concentration at which the highest myoblast proliferation rate was observed (C2C12 myoblasts): 5 µg/mL

B1: myostatin antagonist 329: recombinant peptide, amino acids 267-329 of bovine myostatin, with N terminal and C terminal tag (SEQ ID NO: 3) (protein, listed as Homo sapiens)
chain: DFGLDCDEHSTESRCCRYPLTVDFEAFGWDWIIAPKRYKANYCSGECEFVFLQKYPHTHLVHQ
modifications: N- and C-terminal tags
proliferation capacity of myoblasts compared to control (C2C12 myoblasts): significantly enhanced | concentration at which the highest myoblast proliferation rate was observed (C2C12 myoblasts): 10 µg/mL
